From patent publication US11634451B2, “Method for the site-specific enzymatic labelling of nucleic acids in vitro by incorporation of unnatural nucleotides” (The Scripps Research Institute, priority 2013, dated 2023)
Marks after values point to notes of the source that are not given here.

Experiments:
[1] = test system: OneTaq polymerase; assay: PCR-based screen and amplification of DNA containing unnatural base pairs, OneTaq (Example 1); format: biochemical; settings: for Amplification: -^a = no amplification was detected
Experimental: (§1) The triphosphates of the 6 group were prepared from the previously reported nucleosides (Kubelka, T., Slavetinska, L., Eigner, V. and Hocek, M. Synthesis of 2,6-disubstituted pyridin-3-yl C-2′-deoxyribonucleosides through chemoselective transformations of bromo-chloropyridine C-nucleosides. Org. Biomol. Chem., 11, 4702-4718) according to Ludwig, J. and Eckstein, F. Rapid and efficient synthesis of nucleoside 5′-0-(1-thiotriphosphates), 5′-triphosphates and 2′,3′-cyclophosphorothioates using 2-chloro-4H-1,3,2-benzodioxaphosphorin-4-one. J. Org. Chem., 54, 631-635. The purity of all other triphosphates was confirmed by MALDI-TOF and UV-VIS. Taq and OneTaq DNA polymerases were purchased from New England Biolabs (Ipswich, Mass.). A mixture of dNTPs was purchased from Fermentas (Glen Burnie, Md.). SYBR Green I Nucleic Acid Gel Stain (10,000×) was purchased from Life Technologies (Carlsbad, Calif.). The synthesis of the DNA templates, D8 (Malyshev, D. A., Dhami, K., Quach, H. T., Lavergne, T., Ordoukhanian, P., Torkamani, A. and Romesberg, F. E. Efficient and sequence-independent replication of DNA containing a third base pair establishes a functional six-letter genetic alphabet. Proc. Natl. Acad. Sci. USA, 109, 12005-12010), used for screening rounds 1-5, and D6 (Malyshev, D. A., Seo, Y. J., Ordoukhanian, P. and Romesberg, F. E. PCR with an expanded genetic alphabet. J. Am. Chem. Soc., 131, 14620-14621), used for all other amplifications, was described previously. Sanger sequencing was carried out as described previously (Malyshev, D. A., Dhami, K., Quach, H. T., Lavergne, T., Ordoukhanian, P., Torkamani, A. and Romesberg, F. E. Efficient and sequence-independent replication of DNA containing a third base pair establishes a functional six-letter genetic alphabet. Proc. Natl. Acad. Sci. USA, 109, 12005-12010). Raw Sanger sequencing traces were used to determine the percent retention of the unnatural base pairs, which was converted to fidelity per doubling, as described (Malyshev, D. A., Dhami, K., Quach, H. T., Lavergne, T., Ordoukhanian, P., Torkamani, A. and Romesberg, F. E. Efficient and sequence-independent replication of DNA containing a third base pair establishes a functional six-letter genetic alphabet. Proc. Natl. Acad. Sci. USA, 109, 12005-12010; Malyshev, D. A., Seo, Y. J., Ordoukhanian, P. and Romesberg, F. E. PCR with an expanded genetic alphabet. J. Am. Chem. Soc., 131, 14620-14621).
(§2) All PCR amplifications were performed in a CFX Connect Real-Time PCR Detection System (Bio-Rad), in a total volume of 25 μL using the following conditions: 1× OneTaq reaction buffer, 0.5× Sybr Green I, MgSO4 adjusted to 4.0 mM, 0.2 mM of each dNTP, 50 μM of each unnatural triphosphate, […] of Primer1 and Primer2 (See Table 2), and 0.02 U/μl of the DNA polymerase. Other conditions specific for each round of screening are described in Table 3. Amplified products were purified using DNA Clean and Concentrator-5 spin columns from Zymo Research (Irvine, Calif.). After purification, the PCR products were sequenced on a 3730 DNA Analyzer (Applied Biosystems) to determine the retention of the unnatural base pair as described below. Fidelity was characterized from unnatural base pair (UBP) retention as determined by sequencing with Primer1 on a 3730 DNA Analyzer (Applied Biosystems).
(§3) Specific PCR assay conditions. PCR with the most promising UBPs was carried out with the conditions as described in Table 3. PCR products were further purified on […] gels, followed by single band excision and subsequent clean up using the Zymo Research Zymoclean Gel DNA Recovery Kit. After elution with 20 μl of water, the DNA concentration was measured using fluorescent dye binding (Quant-iT dsDNA HS Assay kit, Life Technologies), and purified amplicons were sequenced in triplicate with both Primer1 and Primer2 to determine UBP retention and thus amplification fidelity. […]

[2] = molecular target: T1, Taq polymerase (Thermus aquaticus, UniProt P19821); assay: PCR-based screen and amplification of DNA containing unnatural base pairs, Taq (Example 1); format: biochemical
T1 construct: purchased New England Biolabs (Ipswich, Mass.)
Experimental: as §1, §2, §3

[3] = OneTaq, 16 cycles, 1 min extension
[4] = ^a 100 pg D8 template, 16 cycles, Taq polymerase, 68° C. for 60 s
[5] = Taq, 10 s Extension, 52 cycles, D6 template
[6] = OneTaq, 1 min Extension, 52 cycles, D6 template
[7] = ^b 10 pg D6 template, 24 cycles, OneTaq polymerase, 68° C. for 10 s

T1 sequence (P19821 whole entry): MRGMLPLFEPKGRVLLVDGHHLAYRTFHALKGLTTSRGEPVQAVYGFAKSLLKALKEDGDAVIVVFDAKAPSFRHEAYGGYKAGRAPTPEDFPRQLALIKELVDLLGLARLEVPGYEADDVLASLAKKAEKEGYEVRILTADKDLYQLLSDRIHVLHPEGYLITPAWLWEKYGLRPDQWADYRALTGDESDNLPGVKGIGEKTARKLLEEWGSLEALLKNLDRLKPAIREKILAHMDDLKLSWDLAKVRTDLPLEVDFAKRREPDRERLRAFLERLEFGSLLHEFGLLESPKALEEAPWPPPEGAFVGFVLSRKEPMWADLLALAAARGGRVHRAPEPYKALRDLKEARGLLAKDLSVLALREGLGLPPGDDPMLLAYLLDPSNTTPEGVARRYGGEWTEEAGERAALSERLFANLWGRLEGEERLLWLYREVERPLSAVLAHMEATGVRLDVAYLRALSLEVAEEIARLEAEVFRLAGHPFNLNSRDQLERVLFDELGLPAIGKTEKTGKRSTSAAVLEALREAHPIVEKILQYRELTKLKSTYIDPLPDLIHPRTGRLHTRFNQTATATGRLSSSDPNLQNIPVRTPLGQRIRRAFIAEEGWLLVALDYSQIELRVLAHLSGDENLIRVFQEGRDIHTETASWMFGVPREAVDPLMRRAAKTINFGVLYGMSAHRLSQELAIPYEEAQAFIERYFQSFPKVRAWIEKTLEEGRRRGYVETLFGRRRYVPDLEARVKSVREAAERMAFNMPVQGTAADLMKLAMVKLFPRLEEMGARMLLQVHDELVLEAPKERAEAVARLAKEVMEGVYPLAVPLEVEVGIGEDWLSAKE

## Cc1ccc([C@H]2C[C@H](O)[C@@H](COP(=O)(O)OP(=O)(O)OP(=O)(O)O)O2)c(Cl)n1.O=P(O)(O)OP(=O)(O)OP(=O)(O)OC[C@H]1O[C@@H](n2ccc3ccsc3c2=S)C[C@@H]1O [TPT3-TOK580]
[1]; [3]
  Fidelity, %: <85 ^b %
  Retention, %: <50 ^b %
  Amplification: 1056
[1]; OneTaq, 16 cycles, 1 min extension, listed as dTPT3-dTOK580
  Retention, %: poorly replicated

## COc1cc(N=[N+]=[N-])ccc1[C@H]1C[C@H](O)[C@@H](COP(=O)(O)OP(=O)(O)OP(=O)(O)O)O1.O=P(O)(O)OP(=O)(O)OP(=O)(O)OC[C@H]1O[C@@H](n2cc(F)c3ccsc3c2=S)C[C@@H]1O [FTPT3-ZMO]
[2]; [4]
  Retention, %: 88^a %

## COc1cc(I)ccc1[C@H]1C[C@H](O)[C@@H](COP(=O)(O)OP(=O)(O)OP(=O)(O)O)O1.O=P(O)(O)OP(=O)(O)OP(=O)(O)OC[C@H]1O[C@@H](n2cc(F)c3ccsc3c2=S)C[C@@H]1O [FTPT3-IMO]
[2]; [5]
  Amplification, ×10^12: 5.6 ×10^12
  Fidelity per Doubling, %: 99.54 ± 0.13%
  Retention, %: 82 ± 5%
[1]; [6]
  Amplification, ×10^12: 7.1 ×10^12
  Fidelity per Doubling, %: 99.38 ± 0.05%
  Retention, %: 76.8 ± 1.6%

## COc1cc(C)ccc1[C@H]1C[C@H](O)[C@@H](COP(=O)(O)OP(=O)(O)OP(=O)(O)O)O1.O=P(O)(O)OP(=O)(O)OP(=O)(O)OC[C@H]1O[C@@H](n2ccc3ccsc3c2=S)C[C@@H]1O [TPT3-MMO2]
[1]; [3]
  Fidelity, %: 99.06 ± 0.40%
  Retention, %: 90.95 ± 3.63%
  Amplification: 1096

## C#Cc1cc(OC)c([C@H]2C[C@H](O)[C@@H](COP(=O)(O)OP(=O)(O)OP(=O)(O)O)O2)cc1F.O=P(O)(O)OP(=O)(O)OP(=O)(O)OC[C@H]1O[C@@H](n2ccc3ccccc3c2=S)C[C@@H]1O [SICS-FEMO]
[1]; [7]
  Retention, %: 92^b %

## COc1cc2ccccc2cc1[C@H]1C[C@H](O)[C@@H](COP(=O)(O)OP(=O)(O)OP(=O)(O)O)O1.O=P(O)(O)OP(=O)(O)OP(=O)(O)OC[C@H]1O[C@@H](n2ccc3ncccc3c2=S)C[C@@H]1O [SNICS-NaM]
[2]; [4]
  Retention, %: 90^a %

## COc1cc(I)c(F)cc1[C@H]1C[C@H](O)[C@@H](COP(=O)(O)OP(=O)(O)OP(=O)(O)O)O1.O=P(O)(O)OP(=O)(O)OP(=O)(O)OC[C@H]1O[C@@H](n2cc(F)c3ccsc3c2=S)C[C@@H]1O [FTPT3-FIMO]
[2]; [5]
  Amplification, ×10^12: 4.8 ×10^12
  Fidelity per Doubling, %: 99.60 ± 0.09%
  Retention, %: 84 ± 3%
[1]; [6]
  Amplification, ×10^12: 8.2 ×10^12
  Fidelity per Doubling, %: 99.65 ± 0.08%
  Retention, %: 86 ± 3%

## C#Cc1cc(OC)c([C@H]2C[C@H](O)[C@@H](COP(=O)(O)OP(=O)(O)OP(=O)(O)O)O2)cc1F.O=P(O)(O)OP(=O)(O)OP(=O)(O)OC[C@H]1O[C@@H](n2ccc3ncccc3c2=S)C[C@@H]1O [SNICS-FEMO]
[1]; [7]
  Retention, %: 95^b %

## CSc1nc(C)ccc1[C@H]1C[C@H](O)[C@@H](COP(=O)(O)OP(=O)(O)OP(=O)(O)O)O1.O=P(O)(O)OP(=O)(O)OP(=O)(O)OC[C@H]1O[C@@H](n2ccc3ccsc3c2=S)C[C@@H]1O [TPT3-TOK588]
[1]; [3]
  Fidelity, %: 94.99 ± 1.13%
  Retention, %: 61.98 ± 7.09%
  Amplification: 666
[1]; OneTaq, 16 cycles, 1 min extension, listed as dTPT3-dTOK588
  Retention, %: 62%

## COc1cc(N=[N+]=[N-])ccc1[C@H]1C[C@H](O)[C@@H](COP(=O)(O)OP(=O)(O)OP(=O)(O)O)O1.O=P(O)(O)OP(=O)(O)OP(=O)(O)OC[C@H]1O[C@@H](n2ccc3ccsc3c2=S)C[C@@H]1O [TPT3-ZMO]
[1]; [7]
  Retention, %: 86^b %
